Literature values as cited in PubChem BioAssay AID1259409 (Chemical Carcinogenesis Research Information System (CCRIS), 2018).

System: rodent chemically induced tumor inhibition, incidence and multiplicity
Assay: CCRIS tumor inhibitor studies
Settings: Carcinogen: 2,2'-DIHYDROXY-DI-N-PROPYLNITROSAMINE, 53609-64-6, 13147-25-6, Carcinogen: 2,2'-DIHYDROXY-DI-N-PROPYLNITROSAMINE, 53609-64-6, 13147-25-6, Dose [Inhibitor]: 0, Route [Inhibitor]: ORAL, Species: RAT, Strain/Sex: F344/MALE, Promoter: NONE USED

COc1cc(/C=C/C(=O)O[C@H]2CC[C@]34C[C@]35CC[C@]3(C)[C@@H]([C@H](C)CCC=C(C)C)CC[C@@]3(C)[C@@H]5CC[C@H]4C2(C)C)ccc1O
tumour outcome (control, treated, inhibition, significance) (N-ETHYL-N-HYDROXYETHYL- NITROSAMINE, 3,2'-DIMETHYL-4-, N-ETHYL-N-HYDROXYETHYL- NITROSAMINE, 3,2'-DIMETHYL-4-, 1% IN DIET BEGINNING 1 WK POST LAST CARCINOGEN DOSE AND CONTINUING FOR 32 WK (STUDY DURATION: 36 WK), Target Tissue: Type of Lesion: LIVER: HEPATOCELLULAR CARCINOMA, Dose [Carcinogen]: 1000 MG/KG IP DHPN 2X, 1500 MG/KG GAV EHEN 2X AND 75 MG/KG SC DMAB 3X GIVEN OVER THE INITIAL 3 WK PERIOD AT 3-4 D INTERV): 6/14 (43%), 3/13 (23%), 47%, not calculated
tumour outcome (control, treated, inhibition, significance) (N-ETHYL-N-HYDROXYETHYL- NITROSAMINE, 3,2'-DIMETHYL-4-, N-ETHYL-N-HYDROXYETHYL- NITROSAMINE, 3,2'-DIMETHYL-4-, 1% IN DIET BEGINNING 1 WK POST LAST CARCINOGEN DOSE AND CONTINUING FOR 32 WK (STUDY DURATION: 36 WK), Target Tissue: Type of Lesion: LUNG: ADENOMA, Dose [Carcinogen]: 1000 MG/KG IP DHPN 2X, 1500 MG/KG GAV EHEN 2X AND 75 MG/KG SC DMAB 3X GIVEN OVER THE INITIAL 3 WK PERIOD AT 3-4 D INTERV): 7/14 (50%), 11/13 (85%), -70%, not calculated
tumour outcome (control, treated, inhibition, significance) (N-ETHYL-N-HYDROXYETHYL- NITROSAMINE, 3,2'-DIMETHYL-4-, N-ETHYL-N-HYDROXYETHYL- NITROSAMINE, 3,2'-DIMETHYL-4-, 1% IN DIET BEGINNING 1 WK POST LAST CARCINOGEN DOSE AND CONTINUING FOR 32 WK (STUDY DURATION: 36 WK), Target Tissue: Type of Lesion: LUNG: CARCINOMA, Dose [Carcinogen]: 1000 MG/KG IP DHPN 2X, 1500 MG/KG GAV EHEN 2X AND 75 MG/KG SC DMAB 3X GIVEN OVER THE INITIAL 3 WK PERIOD AT 3-4 D INTERV): 1/14 (7%), 7/13 (54%), -671%, p<0.05
outcome (N-ETHYL-N-HYDROXYETHYL- NITROSAMINE, 3,2'-DIMETHYL-4-, N-ETHYL-N-HYDROXYETHYL- NITROSAMINE, 3,2'-DIMETHYL-4-, 1% IN DIET BEGINNING 1 WK POST LAST CARCINOGEN DOSE AND CONTINUING FOR 32 WK (STUDY DURATION: 36 WK), Target Tissue: Type of Lesion: URINARY BLADDER: PAPILLOMA, Dose [Carcinogen]: 1000 MG/KG IP DHPN 2X, 1500 MG/KG GAV EHEN 2X AND 75 MG/KG SC DMAB 3X GIVEN OVER THE INITIAL 3 WK PERIOD AT 3-4 D INTERV): 0/14 (0%), 3/13 (23%), -100%, not calculated
tumour outcome (control, treated, inhibition, significance) (N-ETHYL-N-HYDROXYETHYLNITROSAMINE, 3,2'-DIMETHYL-4-AMINO-, N-ETHYL-N-HYDROXYETHYLNITROSAMINE, 3,2'-DIMETHYL-4-AMINO-, 1% IN DIET FOR 32 WK BEGINNING 1 WK POST CARCINOGEN TREATMENT (STUDY DURATION: 36 WK), Target Tissue: Type of Lesion: KIDNEY: ADENOMA, Dose [Carcinogen]: 1000 MG/KG BW DHPN TWICE , 1500 MG/KG BW EHEN TWICE, 75 MG/KG BW 3 TIMES ADMINISTERED OVER FIRST 3 WK): 6/14 (43%), 9/13 (69%), -60%, not significant
tumour outcome (control, treated, inhibition, significance) (N-ETHYL-N-HYDROXYETHYLNITROSAMINE, 3,2'-DIMETHYL-4-AMINO-, N-ETHYL-N-HYDROXYETHYLNITROSAMINE, 3,2'-DIMETHYL-4-AMINO-, 1% IN DIET FOR 32 WK BEGINNING 1 WK POST CARCINOGEN TREATMENT (STUDY DURATION: 36 WK), Target Tissue: Type of Lesion: KIDNEY: NEPHROBLASTOMA, Dose [Carcinogen]: 1000 MG/KG BW DHPN TWICE, 1500 MG/KG BW EHEN TWICE, 75 MG/KG BW 3 TIMES ADMINISTERED OVER FIRST 3 WK): 2/14 (14%), 0/13 (0%), 100%, not significant
tumour outcome (control, treated, inhibition, significance) (N-ETHYL-N-HYDROXYETHYLNITROSAMINE, 3,2'-DIMETHYL-4-AMINO-, N-ETHYL-N-HYDROXYETHYLNITROSAMINE, 3,2'-DIMETHYL-4-AMINO-, 1% IN DIET FOR 32 WK BEGINNING 1 WK POST CARCINOGEN TREATMENT (STUDY DURATION: 36 WK), Target Tissue: Type of Lesion: KIDNEY: TRANSITIONAL CELL CARCINOMA, Dose [Carcinogen]: 1000 MG/KG BW DHPN TWICE , 1500 MG/ KG BW EHEN TWICE, 75 MG/KG BW 3 TIMES ADMINISTERED OVER FIRST THREE WEEKS): 1/14 (7%), 2/13 (15%), -114%, not significant
tumour outcome (control, treated, inhibition, significance) (N-ETHYL-N-HYDROXYETHYLNITROSAMINE, 3,2'-DIMETHYL-4-AMINO-, N-ETHYL-N-HYDROXYETHYLNITROSAMINE, 3,2'-DIMETHYL-4-AMINO-, 1% IN DIET FOR 32 WK BEGINNING 1 WK POST CARCINOGEN TREATMENT (STUDY DURATION: 36 WK), Target Tissue: Type of Lesion: LARGE INTESTINE: CARCINOMA, Dose [Carcinogen]: 1000 MG/KG BW DHPN TWICE, 1500 MG/KG BW EHEN TWICE, 75 MG/KG BW 3 TIMES ADMINISTERED OVER 3 WK): 3/14 (21%), 6/13 (46%), -119%, not significant
tumour outcome (control, treated, inhibition, significance) (N-ETHYL-N-HYDROXYETHYLNITROSAMINE, 3,2'-DIMETHYL-4-AMINO-, N-ETHYL-N-HYDROXYETHYLNITROSAMINE, 3,2'-DIMETHYL-4-AMINO-, 1% IN DIET FOR 32 WK BEGINNING 1 WK POST CARCINOGEN TREATMENT (STUDY DURATION: 36 WK), Target Tissue: Type of Lesion: LIVER: HEPATOCELLULAR CARCINOMA, Dose [Carcinogen]: 1000 MG/KG BW DHPN TWICE , 1500 MG/KG BW EHEN TWICE 75 MG/KG BW 3 TIMES ADMINISTERED OVER FIRST 3 WK): 6/14 (43%), 3/13 (23%), 47%, not significant
